Values of other authors as cited in US20100120744A1, “ACETAM[…] NMDA RECEPTORS” (AUSPEX PHARMACEUTICALS, INC., priority 2008, published 2010).

Settings: in vivo

In the case of `CC(=O)NCCCS(=O)(=O)O` [Acamprosate, 3-acetamidopropane-1-sulfonic acid], the “metabolism by the body” value is given as “not metabolized”.
